For seven compounds, GI50 and TGI results are on record in PubChem BioAssay (NCI).

Test systems include OVCAR-5 ovarian; HCT-116 colon; SR leukemia; M14 melanoma; OVCAR-4 ovarian; MCF7 breast; DU-145 prostate; SK-OV-3 ovarian; SF-539 CNS; NCI-H460 lung.
What all share (assay): NCI-60 cell line screen, 48 h

The structures appear in SMILES notation.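 The compound was tested at five concentrations on cells cultured in 96-well plates, with a 48-hour exposure period. GI50 = concentration required for 50% inhibition of growth. TGI marks complete inhibition of growth.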

On to `Cc1ccc(NC(=O)c2ccc(CN3CCN(C)CC3)cc2)cc1Nc1nccc(-c2cccnc2)n1`, for which the GI50 in the test on OVCAR-5 ovarian is 2.08 µM; in the test on HCT-116 colon it was 13.2 µM; with SR leukemia, 4.72 µM; in the test with M14 melanoma, 19.1 µM; with OVCAR-4 ovarian it was 18.6 µM; with MCF7 breast, 17.8 µM. Moreover, the GI50 with DU-145 prostate was 19.7 µM; in the test with SK-OV-3 ovarian it was 28.7 µM; with SF-539 CNS, 8.06 µM; with NCI-H460 lung, 16.8 µM. The TGI in the test with OVCAR-5 ovarian is 39.5 µM; in the test on HCT-116 colon, 42.6 µM; in the test on SR leukemia, > 51.3 µM; in the test with M14 melanoma, 35.7 µM; with OVCAR-4 ovarian, 65.3 µM; in the test on MCF7 breast, 44.8 µM. Further, the TGI worked out at 55.6 µM in the test on DU-145 prostate, 80.9 µM with SK-OV-3 ovarian, 22.4 µM in the test with SF-539 CNS and 37.1 µM in the test with NCI-H460 lung.

As for `COc1ccc(N=Cc2c(O)ccc3c2oc2cc(Cl)c(O)c(Cl)c23)cc1`, the GI50 in the test on OVCAR-5 ovarian was 17.5 µM; in the test on HCT-116 colon it was 21 µM; in the test with SR leukemia it was 10.9 µM; with M14 melanoma it was 20.9 µM; in the test with OVCAR-4 ovarian it was 16.3 µM; with MCF7 breast it was 7.7 µM. In addition, the GI50 was 18.9 µM with DU-145 prostate, 15.9 µM with SK-OV-3 ovarian, 7.03 µM in the test with SF-539 CNS and 12.7 µM in the test with NCI-H460 lung. Moreover, the TGI in the test on OVCAR-5 ovarian was 38.9 µM; in the test with HCT-116 colon, 56.9 µM; in the test on SR leukemia, 51.7 µM; in the test with M14 melanoma it was 61.2 µM; in the test with OVCAR-4 ovarian, > 100 µM; in the test on MCF7 breast, 44.1 µM. Further, the TGI amounted to 45.9 µM in the test on DU-145 prostate, 49.5 µM in the test with SK-OV-3 ovarian, 30.4 µM in the test on SF-539 CNS and 33.9 µM in the test on NCI-H460 lung.

As for `CCOC(=O)c1ccccc1OC(=O)NNc1ccccc1`, the GI50 was 5.34 µM in the test with OVCAR-5 ovarian; 1.69 µM with HCT-116 colon; 1.47 µM in the test on SR leukemia; 15.2 µM in the test with OVCAR-4 ovarian; 8.14 µM in the test with MCF7 breast; > 48.5 µM in the test with DU-145 prostate. Besides, the GI50 in the test with SK-OV-3 ovarian is > 79.9 µM; with SF-539 CNS it was 0.312 µM; with NCI-H460 lung, 0.442 µM. Besides, the TGI with OVCAR-5 ovarian, in the test with HCT-116 colon, with SR leukemia, with M14 melanoma, in the test with OVCAR-4 ovarian and in the test on MCF7 breast was > 100 µM in each case. Besides, the TGI in the test with DU-145 prostate was > 100 µM; in the test on SK-OV-3 ovarian, > 100 µM; with SF-539 CNS, 1.33 µM; with NCI-H460 lung it was > 100 µM.

As for `CCOC(=O)[C@@H](C)C[C@H](Cc1ccccc1)NC(=O)c1nc([C@@H](C[C@H](C(C)C)N(C)C(=O)[C@@H](NC(=O)[C@H]2CCCCN2C)C(C)C)OC(C)=O)sc1CCOCc1ccccc1`, the GI50 with OVCAR-5 ovarian is 0.246 µM; in the test on HCT-116 colon it was 0.0473 µM; in the test on SR leukemia, 0.0313 µM; with M14 melanoma, 0.0689 µM; in the test on OVCAR-4 ovarian it was 0.222 µM; with MCF7 breast, 0.0404 µM. Besides, the GI50 was 0.0404 µM in the test on DU-145 prostate, 0.0188 µM with SK-OV-3 ovarian, 0.0571 µM with SF-539 CNS and 0.0425 µM in the test with NCI-H460 lung. Further, the TGI with OVCAR-5 ovarian is 4.11 µM; in the test with HCT-116 colon, 1.23 µM; in the test on SR leukemia, 1.87 µM; with M14 melanoma it was 0.727 µM; with OVCAR-4 ovarian it was > 11.1 µM; in the test with MCF7 breast it was 4.33 µM. The TGI in the test on DU-145 prostate was 1.08 µM; in the test with SK-OV-3 ovarian, > 11.1 µM; in the test with SF-539 CNS, 0.39 µM; with NCI-H460 lung it was 1.4 µM.

For the compound `C[C@]12CC[C@@H]3c4cc(OC(F)F)c(O)cc4CC[C@H]3[C@@H]1CC[C@@H]2OS(N)(=O)=O`, the GI50 was 3.51 µM with OVCAR-5 ovarian; 0.419 µM with HCT-116 colon; 0.422 µM with SR leukemia; 0.511 µM with M14 melanoma; 15.8 µM in the test on OVCAR-4 ovarian; 0.566 µM in the test with MCF7 breast. Besides, the GI50 in the test on DU-145 prostate is 1.55 µM; with SK-OV-3 ovarian it was 2.77 µM; with SF-539 CNS, 0.455 µM; with NCI-H460 lung it was 0.422 µM. In addition, the TGI in the test on OVCAR-5 ovarian was > 100 µM; with HCT-116 colon it was 18.9 µM; with SR leukemia it was > 100 µM; in the test on M14 melanoma, 25.9 µM; in the test on OVCAR-4 ovarian, 97.6 µM; in the test on MCF7 breast, 47.1 µM. Further, the TGI was > 100 µM in the test on DU-145 prostate, 98 µM with SK-OV-3 ovarian, 14.4 µM with SF-539 CNS and 15.4 µM with NCI-H460 lung.

Take `COc1cccc(CCC2CCCN(c3cc(C)nc(N)n3)C2)c1` (centres undefined): the GI50 is 1.54 µM with OVCAR-5 ovarian; 0.484 µM with HCT-116 colon; 0.236 µM in the test with SR leukemia; 0.302 µM in the test with M14 melanoma; 0.692 µM with OVCAR-4 ovarian; 0.292 µM in the test on MCF7 breast. In addition, the GI50 with DU-145 prostate is 0.326 µM; in the test with SK-OV-3 ovarian it was 0.414 µM; in the test with SF-539 CNS it was 0.277 µM; in the test on NCI-H460 lung it was 0.38 µM. For the same compound, the TGI with OVCAR-5 ovarian is 17.7 µM; in the test with HCT-116 colon, 11 µM; with SR leukemia it was 4.09 µM; with M14 melanoma it was 2.6 µM; in the test on OVCAR-4 ovarian, 19.3 µM; with MCF7 breast, 11.9 µM. Besides, the TGI in the test with DU-145 prostate stood at 11.2 µM; in the test with SK-OV-3 ovarian it was 11.7 µM; in the test with SF-539 CNS, 1.15 µM; with NCI-H460 lung, 11.6 µM.

As for `CC[C@H](NC(=O)[C@H]1CCCCN1C)C(=O)N(C)[C@H](C[C@@H](OC(C)=O)c1nc(C(=O)N[C@@H](Cc2ccccc2)C[C@H](C)C(=O)O)cs1)C(C)C`, the GI50 was 0.0288 µM in the test on OVCAR-5 ovarian; 0.00366 µM in the test on HCT-116 colon; 0.00183 µM in the test with SR leukemia; 0.00244 µM with M14 melanoma; 0.0326 µM with OVCAR-4 ovarian; < 0.00143 µM in the test with MCF7 breast. Moreover, the GI50 in the test with DU-145 prostate is 0.00425 µM; in the test on SK-OV-3 ovarian, 0.00383 µM; with SF-539 CNS, 0.0035 µM; with NCI-H460 lung, 0.00436 µM. In addition, the TGI with OVCAR-5 ovarian is > 14.3 µM; in the test with HCT-116 colon, > 14.3 µM; in the test on SR leukemia, > 14.3 µM; in the test with M14 melanoma it was 0.00969 µM; with OVCAR-4 ovarian, > 14.3 µM; in the test on MCF7 breast, > 14.3 µM. Moreover, the TGI in the test with DU-145 prostate was > 4.64 µM; in the test on SK-OV-3 ovarian it was > 14.3 µM; in the test with SF-539 CNS, 0.0265 µM; in the test on NCI-H460 lung it was > 14.3 µM.
